According to patent US7842856B2, “Herbicide resistance gene, compositions and methods” (The Board of Trustees of the University of Illinois, priority 2005, dated 2010):

How the values were obtained:
[1] = system: A. tuberculatus F1(R) hybrid (maternal parent R); test: Herbicide dose-response on whole plants, F1(R) line; assay type: in vivo, Amaranthus tuberculatus (waterhemp); conditions: for GR50 (growth reduction by 50%) F1(R): F1(R) line
[2] = system: A. tuberculatus F1(S) hybrid (maternal parent S); test: Herbicide dose-response on whole plants, F1(S) line; assay type: in vivo, Amaranthus tuberculatus (waterhemp)
[3] = system: A. tuberculatus PPO2L with glycine at position 210 expressed in E. coli SASX38; assay type: cell-based; conditions: LB with lactofen (100 nM, FIG. 6), 37° C., 14 hrs

Row | SMILES | GR50 (growth reduction by 50%) F1(R) ([1]; 10 DAT) | GR50 (growth reduction by 50%) F1(R) ([1]; 15 DAT) | fold higher doses survived compared with S plants ([1]; lines heterozygous for resistance vs S plants (FIG. 2; Table 2)) | GR50 (growth reduction by 50%) F1(S) ([2]; 10 DAT) | GR50 (growth reduction by 50%) F1(S) ([2]; 15 DAT) | growth of E. coli on lactofen-supplemented medium [3]
1 | CCOC(=O)C(C)OC(=O)c1cc(Oc2ccc(C(F)(F)F)cc2Cl)ccc1[N+](=O)[O-] (racemic) [Lactofen, (±)-2-ethoxy-1-methyl-2-oxoethyl 5-{2-chloro-4-(trifluoromethyl)phenoxy}-2-nitrobenzoate] | 0.7 g ai ha^−1 | 12 g ai ha^−1 | 31 fold | 1.6 g ai ha^−1 | 13 g ai ha^−1 | dramatically inhibited growth
2 | O=C(O)c1cc(Oc2ccc(C(F)(F)F)cc2Cl)ccc1[N+](=O)[O-] [Acifluorfen, 5-{2-chloro-4-(trifluoromethyl)phenoxy}-2-nitrobezoic acid] | 3.8 g ai ha^−1 |  |  | 4.1 g ai ha^−1 |  | 
